Measured values from PubChem BioAssay AID248 (DTP/NCI, 2004).
Several values for one entry are separate records, joined by “and”; a condition that tells them apart may be missing. Identical values can stand only once. Inconclusive results and toxic doses are left out. No stated cut-off is given here; in the data, active means T/C of 150% or more; inactive means T/C below 125%.

System: L1210 leukemia ip in BDF1 mice, survival T/C
Assay: NCI In Vivo Anticancer Drug Screen. Data for tumor model L1210 Leukemia (intraperitoneal) in B6D2F1 (BDF1) mice
Conditions: endpoint: mean survival time, higher = longer survival
Procedure, shortened: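 Survival endpoint. Drug-treated group vs vehicle group, expressed as T divided by C. Tumor passaged by transplantation.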

[1] = dose: 100.0 mg/kg/injection, schedule: Q04DX003 (ip), vehicle: Klucel (hydroxypropylcellulose) (HPC)
[2] = dose: 100.0 mg/kg/injection, schedule: Q01DX009 (ip), vehicle: saline with Tween-80
[3] = dose: 100.0 mg/kg/injection, schedule: Q04DX003 (ip), vehicle: saline with Tween-80
[4] = dose: 200.0 mg/kg/injection, schedule: Q01DX009 (ip), vehicle: saline with Tween-80
[5] = dose: 200.0 mg/kg/injection, schedule: Q04DX003 (ip), vehicle: saline with Tween-80
[6] = dose: 400.0 mg/kg/injection, schedule: Q01DX009 (ip), vehicle: saline with Tween-80
[7] = dose: 400.0 mg/kg/injection, schedule: Q04DX003 (ip), vehicle: saline with Tween-80
[8] = dose: 100.0 mg/kg/injection, schedule: Q01DX001 (ip), vehicle: saline
[9] = dose: 200.0 mg/kg/injection, schedule: Q01DX001 (ip), vehicle: saline
[10] = dose: 50.0 mg/kg/injection, schedule: Q01DX009 (ip), vehicle: saline with Tween-80
[11] = dose: 100.0 mg/kg/injection, schedule: Q01DX009 (ip), vehicle: Klucel (hydroxypropylcellulose) (HPC)
[12] = dose: 200.0 mg/kg/injection, schedule: Q01DX009 (ip), vehicle: Klucel (hydroxypropylcellulose) (HPC)
[13] = dose: 200.0 mg/kg/injection, schedule: Q04DX003 (ip), vehicle: Klucel (hydroxypropylcellulose) (HPC)
[14] = dose: 400.0 mg/kg/injection, schedule: Q04DX003 (ip), vehicle: Klucel (hydroxypropylcellulose) (HPC)

Measured: T/C

c1ccc2c(c1)ccc1[nH]c3ccc4ccccc4c3c12
inactive: dose: 12.5 mg/kg/injection, schedule: Q01DX009 (ip), vehicle: Klucel (hydroxypropylcellulose) (HPC) 109 % of control | dose: 25.0 mg/kg/injection, schedule: Q01DX009 (ip), vehicle: Klucel (hydroxypropylcellulose) (HPC) 93 % of control | dose: 25.0 mg/kg/injection, schedule: Q04DX003 (ip), vehicle: Klucel (hydroxypropylcellulose) (HPC) 107 % of control | dose: 50.0 mg/kg/injection, schedule: Q04DX003 (ip), vehicle: Klucel (hydroxypropylcellulose) (HPC) 86 % of control | [1] 97 % of control

c1ccc2c(c1)C1CCC2c2ccccc21
inactive: [2] 106 % of control | [3] 95 % of control | [4] 102 % of control | [5] 98 % of control | [6] 97 % of control | [7] 92 % of control

Brc1ccc(/C(=N/Nc2ccccc2)Oc2ccccc2)cc1
inactive: [3] 94 % of control | [5] 94 % of control | [7] 102 % of control

CCC(=O)OC1CCC2(C)C(=CCC3C2CCC2(C)C(C(C)CCCC(C)C)CCC32)C1 (centres undefined)
inactive: dose: 100.0 mg/kg/injection, schedule: Q01DX001 (ip), vehicle: other 91 % of control | dose: 200.0 mg/kg/injection, schedule: Q01DX001 (ip), vehicle: other 91 % of control

C[N+]1(Cc2ccccc2)CCC(=O)CC1
inactive: dose: 50.0 mg/kg/injection, schedule: Q01DX001 (ip), vehicle: saline 97 % of control | [8] 100 % of control | [9] 103 % of control

COc1cc(/C=C/[N+](=O)[O-])c([N+](=O)[O-])cc1OC
inactive: [10] 90 % of control | [8] 106 % of control | [2] 87 % of control | [9] 101 % of control

OC1OC(COC(c2ccccc2)(c2ccccc2)c2ccccc2)C(O)C(O)C1O (centres undefined)
inactive: dose: 50.0 mg/kg/injection, schedule: Q01DX009 (ip), vehicle: saline 95 % of control | [2] 100 % of control and 102 % of control | dose: 100.0 mg/kg/injection, schedule: Q01DX009 (ip), vehicle: saline 98 % of control | [3] 102 % of control | dose: 100.0 mg/kg/injection, schedule: Q04DX003 (ip), vehicle: saline 102 % of control | dose: 100.0 mg/kg/injection, schedule: Q04DX003 (ip), vehicle: water 105 % of control | [4] 95 % of control and 96 % of control | dose: 200.0 mg/kg/injection, schedule: Q01DX009 (ip), vehicle: saline 95 % of control | [5] 96 % of control | dose: 200.0 mg/kg/injection, schedule: Q04DX003 (ip), vehicle: saline 93 % of control | dose: 200.0 mg/kg/injection, schedule: Q04DX003 (ip), vehicle: water 97 % of control | [6] 104 % of control | [7] 94 % of control | dose: 400.0 mg/kg/injection, schedule: Q04DX003 (ip), vehicle: water 96 % of control

C/C=C(/C#N)c1ccccc1
inactive: [10] 107 % of control | [2] 106 % of control | [3] 90 % of control | [4] 100 % of control | [5] 96 % of control

CCCCCCCCCCCOP(=O)(OCC)OCC
inactive: dose: 100.0 mg/kg/injection, schedule: Q04DX002 (ip), vehicle: saline with Tween-80 95 % of control | dose: 200.0 mg/kg/injection, schedule: Q04DX002 (ip), vehicle: saline with Tween-80 95 % of control | dose: 400.0 mg/kg/injection, schedule: Q04DX002 (ip), vehicle: saline with Tween-80 106 % of control

CN(C)C(=S)SCN1CCCCC1
inactive: [11] 103 % of control | [1] 96 % of control | [12] 97 % of control | [13] 104 % of control | [14] 107 % of control

Br/C=C(\Br)CBr
inactive: dose: 75.0 mg/kg/injection, schedule: Q01DX001 (sc), vehicle: olive oil, sesame oil, peanut oil 105 % of control | dose: 150.0 mg/kg/injection, schedule: Q01DX001 (sc), vehicle: olive oil, sesame oil, peanut oil 108 % of control

COc1ccc(C(=O)Nc2ccc(F)cc2)cc1
inactive: dose: 100.0 mg/kg/injection, schedule: Q01DX009 (ip), vehicle: carboxymethylcellulose (CMC) 100 % of control and 105 % of control | dose: 100.0 mg/kg/injection, schedule: Q04DX002 (ip), vehicle: Klucel (hydroxypropylcellulose) (HPC) 115 % of control | dose: 100.0 mg/kg/injection, schedule: Q04DX002 (ip), vehicle: carboxymethylcellulose (CMC) 103 % of control | dose: 100.0 mg/kg/injection, schedule: Q04DX003 (ip), vehicle: carboxymethylcellulose (CMC) 101 % of control | dose: 200.0 mg/kg/injection, schedule: Q01DX009 (ip), vehicle: carboxymethylcellulose (CMC) 94 % of control and 89 % of control | dose: 200.0 mg/kg/injection, schedule: Q04DX002 (ip), vehicle: Klucel (hydroxypropylcellulose) (HPC) 102 % of control | dose: 200.0 mg/kg/injection, schedule: Q04DX002 (ip), vehicle: carboxymethylcellulose (CMC) 93 % of control and 95 % of control | dose: 200.0 mg/kg/injection, schedule: Q04DX003 (ip), vehicle: carboxymethylcellulose (CMC) 106 % of control | dose: 400.0 mg/kg/injection, schedule: Q01DX009 (ip), vehicle: carboxymethylcellulose (CMC) 87 % of control | dose: 400.0 mg/kg/injection, schedule: Q04DX002 (ip), vehicle: Klucel (hydroxypropylcellulose) (HPC) 108 % of control | dose: 400.0 mg/kg/injection, schedule: Q04DX002 (ip), vehicle: carboxymethylcellulose (CMC) 93 % of control and 100 % of control | dose: 400.0 mg/kg/injection, schedule: Q04DX003 (ip), vehicle: carboxymethylcellulose (CMC) 102 % of control

CCCCC(C=O)(C=C=C(C)C)CC (centres undefined)
inactive: [2] 89 % of control | [3] 92 % of control | [4] 91 % of control | [5] 93 % of control | [6] 89 % of control | [7] 98 % of control

O=Nc1c(O)ccc2ncccc12
inactive: dose: 75.0 mg/kg/injection, schedule: Q01DX001 (ip), vehicle: other 104 % of control | dose: 150.0 mg/kg/injection, schedule: Q01DX001 (ip), vehicle: other 104 % of control

COc1ccc(-c2c(CC(=O)O)c3cc(OC)ccc3n2Cc2ccc(Cl)cc2)cc1
inactive: dose: 65.0 mg/kg/injection, schedule: Q01DX Z (ip), vehicle: carboxymethylcellulose (CMC) 94 % of control | dose: 125.0 mg/kg/injection, schedule: Q01DX Z (ip), vehicle: carboxymethylcellulose (CMC) 98 % of control | dose: 250.0 mg/kg/injection, schedule: Q01DX Z (ip), vehicle: carboxymethylcellulose (CMC) 107 % of control | dose: 500.0 mg/kg/injection, schedule: Q01DX Z (ip), vehicle: carboxymethylcellulose (CMC) 94 % of control | dose: 750.0 mg/kg/injection, schedule: Q01DX Z (ip), vehicle: carboxymethylcellulose (CMC) 90 % of control | dose: 875.0 mg/kg/injection, schedule: Q01DX Z (ip), vehicle: carboxymethylcellulose (CMC) 91 % of control

O=C1NC(=O)C(CCI)(CCI)C(=O)N1
inactive: dose: 100.0 mg/kg/injection, schedule: Q01DX001 (ip), vehicle: carboxymethylcellulose (CMC) 103 % of control | dose: 200.0 mg/kg/injection, schedule: Q01DX001 (ip), vehicle: carboxymethylcellulose (CMC) 98 % of control | dose: 400.0 mg/kg/injection, schedule: Q01DX001 (ip), vehicle: carboxymethylcellulose (CMC) 109 % of control

CC1CN(C(C)(C)C)C1
inactive: dose: 100.0 mg/kg/injection, schedule: Q04DX003 (ip), vehicle: acetone 95 % of control

CC(=O)N1CC(n2nnc3c(N)ncnc32)CC1CO (centres undefined)
inactive: dose: 12.5 mg/kg/injection, schedule: Q04DX002 (ip), vehicle: saline with Tween-80 98 % of control | dose: 25.0 mg/kg/injection, schedule: Q04DX002 (ip), vehicle: saline with Tween-80 102 % of control | dose: 50.0 mg/kg/injection, schedule: Q04DX002 (ip), vehicle: saline with Tween-80 94 % of control

O=S1(=O)CC(c2cccc3ccccc23)Nc2ccccc21 (centres undefined)
inactive: dose: 100.0 mg/kg/injection, schedule: Q01DX001 (ip), vehicle: Klucel (hydroxypropylcellulose) (HPC) 97 % of control | [11] 95 % of control | [1] 95 % of control | dose: 200.0 mg/kg/injection, schedule: Q01DX001 (ip), vehicle: Klucel (hydroxypropylcellulose) (HPC) 93 % of control | [12] 95 % of control | [13] 90 % of control | dose: 400.0 mg/kg/injection, schedule: Q01DX001 (ip), vehicle: Klucel (hydroxypropylcellulose) (HPC) 89 % of control | dose: 400.0 mg/kg/injection, schedule: Q01DX009 (ip), vehicle: Klucel (hydroxypropylcellulose) (HPC) 94 % of control | [14] 97 % of control
